Experimental data taken from patent US10047076B2, “Halogen-substituted compounds” (BAYER CROPSCIENCE AKTIENGESELLSCHAFT, priority 2014, dated 2018).

Legend:
Phaedon cochleariae = Phaedon cochleariae spray test; conditions: larvae on Chinese cabbage leaf discs, after 7 days
[1] = log P determination by HPLC on reversed-phase column (C18), EEC Directive 79/831 Annex V.A8, acidic (formic acid); format: physicochemical; conditions: HPLC method a), acetonitrile/water with formic acid
Experimental: ^1 The stated mass is the peak of the isotope pattern of the [M+H]^+ ion of the highest intensity; if the [M-H]^- ion was detected, the stated mass is identified with ^2. ^2 The stated mass is the peak of the isotope pattern of the [M-H]^- ion of the highest intensity. ^a) Note regarding the determination of the log P values and mass detection: The determination of the given log P values was carried out in accordance with EEC Directive 79/831 Annex V.A8 by HPLC (High Performance Liquid Chromatography) on a reversed-phase column (C18). […] Mass detection is effected by means of an […] system. ^b) Note regarding the determination of the retention time and mass detection: The stated retention times were determined on a reversed-phase column (C18) Shimadzu LCMS 2020; 50*3.0 Shimadzu shim-pack XR-ODS 2.2 micron; mobile phase A: water (0.05% TFA); mobile phase B: acetonitrile; linear gradient from 5% acetonitrile to 95% acetonitrile in 6.00 min, then 95% acetonitrile for a further 1.1 min; oven temperature 40° C.; flow rate: 1.0 ml/min. ^c) Note regarding the determination of the retention time and mass detection: Instrument: Waters ACQUITY SQD UPLC system; column. Waters Acquity UPLC HSS T3 1.8μ 50×1 mm; mobile phase A: 1 l of water+0.25 ml of 99% strength formic acid, mobile phase B: 1 l of acetonitrile+0.25 ml of 99% strength formic acid; gradient: 0.0 min 90% A→1.2 min 5% A→2.0 min 5% A oven: 50° C.; flow rate: 0.40 ml/min; UV detection: 208-400 nm. ^d) Note regarding the determination of the retention time and mass detection: […] The determination of the given log P values was carried out in accordance with EEC Directive 79/831 Annex V.A8 by HPLC (High Performance Liquid Chromatography) on a reversed-phase column (C18). […] Mass detection is effected by means of an […] system.

| Compound | logP [1] | other results |
| --- | --- | --- |
| Cn1nc(C(F)(F)C(F)(F)F)c(C(F)(F)F)c1-c1nnc(-c2cccc(C(=O)NC3CC3)c2)s1 [Iaj-1, N-cyclopropyl-3-{5-[1-methyl-3-(pentafluoroethyl)-4-(trifluoromethyl)-1H-pyrazol-5-yl]-1,3,4-thiadiazol-2-yl}benzamide] | – | efficacy (Phaedon cochleariae; 500 g/ha): 100%; chromatographic logP [1]: 3.72 |
| Cn1nc(C(F)(F)C(F)(F)F)c(C(F)(F)F)c1-c1cc(-c2ccc(Cl)c(C(=O)NCC(=O)NCC(F)(F)F)c2)no1 [Iap-6] | 3.87 | efficacy (Phaedon cochleariae; 100 g/ha): 100% |
| Cn1nc(C(F)(F)C(F)(F)F)c(C(F)(F)F)c1-c1ncc(-c2cccc(C(=O)NC3(C#N)CC3)c2)s1 [Iaq-1, N-(1-cyanocyclopropyl)-3-{2-[1-methyl-3-(pentafluoroethyl)-4-(trifluoromethyl)-1H-pyrazol-5-yl]-1,3-thiazol-5-yl}benzamide] | – | efficacy (Phaedon cochleariae; 100 g/ha): 100%; chromatographic logP [1]: 3.93 |
| Cn1nc(C(F)(F)C(F)(F)F)c(C(F)(F)F)c1-c1ncc(-c2cccc(C(N)=O)c2)s1 [Iaq-2] | 3.38 | – |
| CN(C(=O)c1cccc(-c2cc(-c3c(C(F)(F)F)c(C(F)(F)C(F)(F)F)nn3C)n(C)n2)c1)C1CC1 [Iaw-1, N-cyclopropyl-3-[2,2′-dimethyl-5′-(pentafluoroethyl)-4′-(trifluoromethyl)-2H,2′H-3,3′-bipyrazol-5-yl]-N-methylbenzamide] | – | chromatographic logP [1]: 3.94 |
| CN(C(=O)c1cccc(-c2cc(-c3c(C(F)(F)F)c(C(F)(F)C(F)(F)F)nn3C)nn2C)c1)C1CC1 [Iax-1, N-cyclopropyl-3-[1,2′-dimethyl-5′-(pentafluoroethyl)-4′-(trifluoromethyl)-1H,2′H-3,3′-bipyrazol-5-yl]-N-methylbenzamide] | – | efficacy (Phaedon cochleariae; 100 g/ha): 100%; chromatographic logP [1]: 4.13 |
| Cn1nc(C(F)(F)C(F)(F)F)c(C(F)(F)F)c1-c1nc(-c2ccc(Cl)c(C(=O)NCc3ccccc3)c2)ns1 [Ibd-1] | 5.00 | – |
| Cn1nc(C(F)(F)C(F)(F)F)c(C(F)(F)F)c1-c1nc(-c2ccc(Cl)c(C(=O)Nc3ccc(F)cc3)c2)ns1 [Ibd-2] | 5.17 | – |
| Cn1nc(C(F)(F)C(F)(F)F)c(C(F)(F)F)c1-c1nc(-c2ccc(Cl)c(C(=O)NC3CC3)c2)ns1 [Ibd-3, 2-chloro-N-cyclopropyl-5-{5-[1-methyl-3-(pentafluoroethyl)-4-(trifluoromethyl)-1H-pyrazol-5-yl]-1,2,4-thiadiazol-3-yl}benzamide] | – | efficacy (Phaedon cochleariae; 500 g/ha): 100% |
| Cn1nc(C(F)(F)C(F)(F)F)c(C(F)(F)F)c1-c1noc(-c2ccc(Cl)c(C(=O)NCc3ccccc3)c2)n1 [Ibe-2] | 4.76 | – |
| Cn1nc(C(F)(F)C(F)(F)F)c(C(F)(F)F)c1-c1noc(-c2ccc(Cl)c(C(=O)Nc3ccc(F)cc3)c2)n1 [Ibe-3] | 4.91 | efficacy (Phaedon cochleariae; 500 g/ha): 100% |
| Cn1nc(C(F)(F)C(F)(F)F)c(C(F)(F)F)c1-c1nc(-c2cccc(C(=O)NCc3ccccc3)c2)n[nH]1 [Ibg-1, N-benzyl-3-{5-[1-methyl-3-(pentafluoroethyl)-4-(trifluoromethyl)-1H-pyrazol-5-yl]-1H-1,2,4-triazol-3-yl}benzamide] | – | chromatographic logP [1]: 3.8 |
| Cn1nc(C(F)(F)C(F)(F)F)c(C(F)(F)F)c1-c1nc(-c2cccc(C(=O)NC3CC3)c2)n[nH]1 [Ibg-2] | 3.24 | – |
| Cn1nc(C(F)(F)C(F)(F)F)c(C(F)(F)F)c1-c1nc(-c2cccc(C(=O)NCC(F)(F)F)c2)n[nH]1 [Ibg-3] | 3.54 | – |
| Cn1nc(-c2ccc(Cl)c(C(=O)NCC(F)(F)F)c2)nc1-c1c(C(F)(F)F)c(C(F)(F)C(F)(F)F)nn1C [Ibg-4] | 4.14 | – |
| CCn1nc(-c2ccc(Cl)c(C(=O)NCC(F)(F)F)c2)nc1-c1c(C(F)(F)F)c(C(F)(F)C(F)(F)F)nn1C [Ibg-6] | 4.41 | – |
| Cn1nc(-c2ccc(Cl)c(C(=O)NC3CC3)c2)nc1-c1c(C(F)(F)F)c(C(F)(F)C(F)(F)F)nn1C [Ibg-7] | 3.80 | efficacy (Phaedon cochleariae; 500 g/ha): 100% |
| CC(C)n1nc(-c2ccc(Cl)c(C(=O)NCc3ccccc3)c2)nc1-c1c(C(F)(F)F)c(C(F)(F)C(F)(F)F)nn1C [Ibg-8] | 4.93 | efficacy (Phaedon cochleariae; 500 g/ha): 100% |
| CCn1nc(-c2ccc(Cl)c(C(=O)NCc3ccccc3)c2)nc1-c1c(C(F)(F)F)c(C(F)(F)C(F)(F)F)nn1C [Ibg-9] | 4.71 | efficacy (Phaedon cochleariae; 500 g/ha): 100% |

| Compound | logP [1] | other results |
| --- | --- | --- |
| Cn1nc(-c2ccc(Cl)c(C(=O)NCc3ccccc3)c2)nc1-c1c(C(F)(F)F)c(C(F)(F)C(F)(F)F)nn1C [Ibg-10] | 4.43 | – |
| CC(C)n1nc(-c2ccc(Cl)c(C(=O)Nc3ccccc3)c2)nc1-c1c(C(F)(F)F)c(C(F)(F)C(F)(F)F)nn1C [Ibg-11] | 5.13 | – |
| CCn1nc(-c2ccc(Cl)c(C(=O)Nc3ccccc3)c2)nc1-c1c(C(F)(F)F)c(C(F)(F)C(F)(F)F)nn1C [Ibg-12] | 4.85 | – |
| CC(C)n1nc(-c2ccc(Cl)c(C(=O)NC3CC3)c2)nc1-c1c(C(F)(F)F)c(C(F)(F)C(F)(F)F)nn1C [Ibg-13] | 4.35 | efficacy (Phaedon cochleariae; 500 g/ha): 100% |
| Cn1nc(-c2ccc(Cl)c(C(=O)Nc3ccccc3)c2)nc1-c1c(C(F)(F)F)c(C(F)(F)C(F)(F)F)nn1C [Ibg-14] | 4.56 | – |
| Cn1nc(-c2cccc(C(=O)NCc3ccccc3)c2)nc1-c1c(C(F)(F)F)c(C(F)(F)C(F)(F)F)nn1C [Ibg-15, N-benzyl-3-{1-methyl-5-[1-methyl-3-(pentafluoroethyl)-4-(trifluoromethyl)-1H-pyrazol-5-yl]-1H-1,2,4-triazol-3-yl}benzamide] | – | chromatographic logP [1]: 4.24 |
| Cn1nc(-c2c(C(F)(F)F)c(C(F)(F)C(F)(F)F)nn2C)nc1-c1cccc(C(=O)NCc2ccccc2)c1 [Ibh-2, N-benzyl-3-{1-methyl-3-[1-methyl-3-(pentafluoroethyl)-4-(trifluoromethyl)-1H-pyrazol-5-yl]-1H-1,2,4-triazol-5-yl}benzamide] | – | chromatographic logP [1]: 4.16 |
| CC(C)n1nc(-c2c(C(F)(F)F)c(C(F)(F)C(F)(F)F)nn2C)nc1-c1ccc(Cl)c(C(=O)NCC(F)(F)F)c1 [Ibh-7] | 4.68 | – |
| CC(C)n1nc(-c2c(C(F)(F)F)c(C(F)(F)C(F)(F)F)nn2C)nc1-c1ccc(Cl)c(C(=O)NCc2ccccc2)c1 [Ibh-9] | 4.98 | – |
| CCn1nc(-c2c(C(F)(F)F)c(C(F)(F)C(F)(F)F)nn2C)nc1-c1ccc(Cl)c(C(=O)NCc2ccccc2)c1 [Ibh-10] | 4.59 | – |
| Cn1nc(-c2c(C(F)(F)F)c(C(F)(F)C(F)(F)F)nn2C)nc1-c1ccc(Cl)c(C(=O)NCc2ccccc2)c1 [Ibh-11] | 4.29 | – |
| CC(C)n1nc(-c2c(C(F)(F)F)c(C(F)(F)C(F)(F)F)nn2C)nc1-c1ccc(Cl)c(C(=O)Nc2ccccc2)c1 [Ibh-12] | 5.23 | – |
| CCn1nc(-c2c(C(F)(F)F)c(C(F)(F)C(F)(F)F)nn2C)nc1-c1ccc(Cl)c(C(=O)Nc2ccccc2)c1 [Ibh-13] | 4.73 | – |
| Cn1nc(-c2c(C(F)(F)F)c(C(F)(F)C(F)(F)F)nn2C)nc1-c1ccc(Cl)c(C(=O)Nc2ccccc2)c1 [Ibh-14] | 4.42 | – |
| Cn1nc(C(F)(F)C(F)(F)F)c(C(F)(F)F)c1-c1nnc(-c2ccc(Cl)c(C(=O)NCc3ccccc3)c2)[nH]1 [Ibi-1] | 4.00 | – |
| Cn1nc(C(F)(F)C(F)(F)F)c(C(F)(F)F)c1-c1nnc(-c2ccc(Cl)c(C(=O)NCC(F)(F)F)c2)[nH]1 [Ibi-2] | 3.73 | – |
| Cn1nc(C(F)(F)C(F)(F)F)c(C(F)(F)F)c1-c1nnc(-c2ccc(Cl)c(C(=O)NC3CC3)c2)[nH]1 [Ibi-3] | 3.40 | – |
| Cn1nc(C(F)(F)C(F)(F)F)c(C(F)(F)F)c1-c1nnc(-c2ccc(Cl)c(C(=O)Nc3ccccc3)c2)[nH]1 [Ibi-4] | 4.13 | – |
